Patent publication US6121315A, “Oral compositions containing a zinc compound” (priority 1999, dated 2000)
Where “and” joins values, the source holds several entries; their conditions need not be identical. Identical values can stand only once. Like-named read-outs stand apart in the source and are kept apart here.

What was measured:
[1] = cited from earlier work
[2] = Adherence of zinc to simulated dental plaque on steel wires, fluorimetric with 8-hydroxyquinoline
Description: To determine how readily zinc adheres to dental plaque, the adherence of zinc to simulated plaque grown on steel wires was fluorimetrically measured. Increasing concentrations of zinc solutions were used in the test oral compositions.
After the simulated plaque is developed on the wires, it is then immersed in the oral composition to be tested, which is followed by a rinse. Thereafter, the plaque coated wires are immersed in a 0.01% solution of 8-hydroxyquinoline prepared by dissolving the 8-hydroxyquinoline in 100% ethanol. Twenty (20) ml of this solution were then brought q.s. up to the correct concentration.

[3] = test system: Fusobacterium nucleatum (ATCC 10953); format: cell-based
Text: The objective of this study was to evaluate the use of pure cultures or oral malodor-causing bacteria as the source of malodor instead of human subjects. Cultures of Fusobacterium nucleatum, Veillonella parvula and Prevotella sp. are well recognized producers of VSC's due to their ability to digest amino acids including cysteine and methionine. The most widely investigated of these is F. nucleatum. Therefore, this organism was selected for this in vitro test. Evaluating a finished oral care composition spiked with Fusobacterium was considered, however, the detector in the Halimeter was adversely affected by alcohols. […] Therefore, the following methodology was applied to screen the effectiveness of various zinc salt solutions in reducing VSC's: Fusobacterium nucleatum (ATCC #10953) was transferred twice from frozen stock cultures and maintained by daily transfers in […]' broth (Difco or BBL). […] The tube is a scaled down version of a Kontes #181000 adapter inlet with hose connectors which is coupled to a 18×100 mm glass tube fitted with a tapered ground fitting. After one minute the Halimeter was connected to a port on the reaction tube and allowed to sample the VSC's in the solution via the vacuum pump. The peak reading recorded by the Halimeter was taken as the VSC measurement. The level of inoculum selected was determined by ppb of VSC's generated in inoculated water alone. […] Three different zinc salt solutions, ZnCl2, ZnSO4, and ZnO, were evaluated. […] Water was used as the control. (Table 1) The heading D% refers to the difference between the measurement of VSCs in ppb using a pure water solution and the measurement of VSCs in ppb using varying concentrations of zinc salts. Each experiment was run in triplicate.

[4] = Overnight malodor study: morning mouth air VSC (H2 S, CH3 SH) by gas chromatography; format: in vivo, human
Description: Subjects participating in this study maintained their normal nightly oral hygiene procedure for the duration of the study. In addition, all participants were asked to refrain from eating odoriferous foods at least 24 hours prior to their appointment for measurement of VSC's.
Subjects reported directly to the laboratory each morning for measurement of mouth air VSC levels. This measurement was the baseline (pretreatment) level of VSC. Selection for the study was based on morning levels of H2 S above 30 parts per billion (ppb) and CH3 SH above 20 ppb. Subjects fulfilling this criteria received a treatment to use that evening. Immediately before retiring to bed, the subjects rinsed vigorously for 30 seconds using the assigned treatment. The following morning the subject returned to the lab for analysis of mouth air VSC. This measurement was the post-treatment value. These treatments were assigned in a random, crossover design experiment.
Levels of VSC in subject's mouth air were determined using a gas chromatography system equipped with a flame photometric detector. […] Analysis of variance tested for significant treatment differences.
Differences between treatment were tested by analysis of variance using post minus pretreatment levels of mouth air VSCs.

[5] = 1 hour after using 31 or 18 mM; cited from earlier work
[6] = 0.25% zinc chloride, significant reduction from Baseline
[7] = individual subjects 1-13 in table order, morning after 20 ml of 0.25% zinc chloride, 30 second rinse at bedtime
[8] = individual subjects 1-13 in table order, pretreatment, zinc chloride arm
[9] = mean of 13 subjects, pretreatment, zinc chloride arm

| Structure (SMILES) | % D, difference from water in VSC ([3]; 0.01%, first run) | % D, difference from water in VSC ([3]; 0.01%, second run) | % D, difference from water in VSC ([3]; 0.01%, third run) | % D, difference from water in VSC ([3]; 0.05%, first run) | % D, difference from water in VSC ([3]; 0.05%, second run) | % D, difference from water in VSC ([3]; 0.05%, third run) | % D, difference from water in VSC ([3]; 0.1%, first run) | % D, difference from water in VSC ([3]; 0.1%, second run) | % D, difference from water in VSC ([3]; 0.1%, third run) | % D, difference from water in VSC ([3]; 0.2%, first run) | % D, difference from water in VSC ([3]; 0.2%, second run) | % D, difference from water in VSC ([3]; 0.2%, third run) | % D, difference from water in VSC ([3]; 0.4%, first run) | % D, difference from water in VSC ([3]; 0.4%, second run) | % D, difference from water in VSC ([3]; 0.4%, third run) | other results |
| --- | --- | --- | --- | --- | --- | --- | --- | --- | --- | --- | --- | --- | --- | --- | --- | --- |
| CC1CCC(C(C)C)C(O)C1 (stereo not drawn) [Menthol, hexahydrothymol, reference compound] |  |  |  |  |  |  |  |  |  |  |  |  |  |  |  | solubility in alcohol [1]: highly soluble |
| [Cl-].[Cl-].[Zn+2] [ZnCl2, zinc chloride] | -47.4% | -58.3% | -37.0% | -53.0% | -57.5% | -40.0% | -53.8% | -54.6% | -43.1% | -59.8% | -60.4% | -47.9% | -63.2% | -58.9% | -47.4% | amount of fluorescence in dental plaque vs concentration ([2]; ZnCl2 0.001%, 0.010%, 0.025%, 0.050% and 0.100%): the amount of fluorescence increased with increasing zinc concentration; lowest concentration at which fluorescence from zinc was detectable in dental plaque ([2]; base oral composition identical to Example 2, excitation 360 nm, emission 530 nm or 590 nm): 0.001 % (w/v); CH3 SH, Probability (p), t-test for differences from baseline [4, 6]: .0209; H2 S, Probability (p), t-test for differences from baseline [4, 6]: .0074; CH3 SH levels, Post [4, 7]: 50 ppb and 20 ppb and 63 ppb and 176 ppb and 41 ppb and 35 ppb and 29 ppb and 25 ppb and 133 ppb and 47 ppb and 16 ppb; H2 S levels, Post [4, 7]: 41 ppb and 22 ppb and 162 ppb and 268 ppb and 129 ppb and 106 ppb and 35 ppb and 318 ppb and 32 ppb and 94 ppb and 17 ppb and 97 ppb; CH3 SH levels, Baseline [4, 8]: 173 ppb and 46 ppb and 358 ppb and 115 ppb and 249 ppb and 61 ppb and 51 ppb and 99 ppb and 170 ppb and 217 ppb and 44 ppb and 59 ppb and 34 ppb; H2 S levels, Baseline [4, 8]: 344 ppb and 53 ppb and 522 ppb and 204 ppb and 644 ppb and 310 ppb and 91 ppb and 509 ppb and 191 ppb and 175 ppb and 81 ppb and 110 ppb and 170 ppb; CH3 SH levels, Post, mean (x) ([4]; mean of 13 subjects, morning after 20 ml of 0.25% zinc chloride, baseline mean 129, water 76 to 65): 57 ppb; H2 S levels, Post, mean (x) ([4]; mean of 13 subjects, morning after 20 ml of 0.25% zinc chloride, baseline mean 262, water 164 to 113): 114 ppb; CH3 SH levels, Baseline, mean (x) [4, 9]: 129 ppb; H2 S levels, Baseline, mean (x) [4, 9]: 262 ppb; development of VSC's overnight in vivo ([4]; summary statement in words): prevent or inhibit |
| [O]=[Zn] [ZnO, zinc oxide] | -53.7% | -54.9% | -40.0% | -48.7% | -51.8% | -37.5% | -58.2% | -57.6% | -42.1% | -59.4% | -63.5% | -47.9% | -60.2% | -70.5% | -54.1% |  |
| O=S(=O)([O-])[O-].[Zn+2] [ZnSO4, zinc sulfate] | -52.0% | -67.7% | -38.7% | -53.6% | -51.3% | -42.5% | -54.7% | -58.6% | -42.4% | -58.1% | -67.4% | -48.1% | -65.0% | -58.2% | -51.0% |  |
| CC(C)[C@@H]1CC[C@@H](C)C[C@H]1OC(=O)CCC(=O)O [monomenthyl succinate] |  |  |  |  |  |  |  |  |  |  |  |  |  |  |  | solubility in water [1]: sparingly soluble; solubility in oil ([1]; relative to water): more soluble |
| O=S(=O)([O-])c1ccc(O)cc1.O=S(=O)([O-])c1ccc(O)cc1.[Zn+2] [zinc phenolsuphonate] |  |  |  |  |  |  |  |  |  |  |  |  |  |  |  | oral zinc concentration [5]: markedly increased |
| [Cl-].[Cl-].[Zn+2] [zinc] |  |  |  |  |  |  |  |  |  |  |  |  |  |  |  | levels of CH3 SH and H2 S compared to baseline levels ([4]; overnight, morning breath, result in words): significantly reduced |
